Publication PMC3274548, “Toward New Therapeutics for Skin and Soft Tissue Infections: Propargyl-Linked Antifolates Are Potent Inhibitors of MRSA and Streptococcus pyogenes” (PLoS ONE, 2012)
Values after ≈ are worked out from the molar mass of the structure shown. Read-outs that look alike come from different tables or passages of the source.

Experiments:
hVISA Mu3 = experiment: MIC against clinical isolates of MRSA; format: cell-based; conditions: Staphylococcus aureus; heteroresistant vancomycin intermediate S. aureus; read-out: MIC hVISA Mu3
USA100 HA-MRSA = experiment: MIC against clinical isolates of MRSA; format: cell-based; conditions: Staphylococcus aureus, clinical isolate, read-out: MIC USA100 HA-MRSA
MRSA (S.aureus 13709) = experiment: MIC, broth microdilution with Alamar Blue; format: cell-based, Staphylococcus aureus; conditions: for Selectivity MRSA: IC50 (MCF10)/MIC (pathogen), both values in µM; for MIC: Staphylococcus aureus, MRSA
Description: (§1) Stock solutions of standard antibiotics and test compounds were made at 50 mM in DMSO. […] For susceptibility testing, 10 µL of glycerol stock was suspended in a 10 mL shake flask culture of chemically defined Isosensitest broth (Oxoid) supplemented with 2% w/v glucose. A sample of the shake flask culture was diluted to 1×10^6 cells/mL in media and added to 96-well test plates (100 µL per well) containing test compounds dispensed in DMSO (2 µL) using serial two-fold dilutions. After an incubation period (30°C) determined from the strain specific doubling time, a 0.03% w/v aqueous solution of resazurin (10 µL) was added and the plates were allowed to incubate; each well was then scored for dye reduction.

[1] = tested on: MRSA strain containing the F98Y mutation; experiment: MIC against MRSA strain containing the F98Y mutation; format: cell-based; conditions: Staphylococcus aureus, read-out: MIC against MRSA strain containing the F98Y mutation
Human DHFR = target: T1, Human DHFR (Homo sapiens, UniProt P00374); experiment: DHFR enzyme inhibition assay (NADPH oxidation, 340 nm); format: biochemical; conditions: human DHFR; average of at least three measurements; read-out: IC50 (nM) Human
T1 sequence (P00374 1-187): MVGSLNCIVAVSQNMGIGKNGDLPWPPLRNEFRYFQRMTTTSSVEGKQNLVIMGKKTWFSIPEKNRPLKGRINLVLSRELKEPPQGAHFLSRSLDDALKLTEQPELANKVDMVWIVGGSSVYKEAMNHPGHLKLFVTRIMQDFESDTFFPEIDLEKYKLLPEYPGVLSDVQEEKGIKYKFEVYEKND
Description: (§2) Enzyme inhibition assays were performed by monitoring the rate of NADPH oxidation by the DHFR enzyme at an absorbance of 340 nm over five minutes. Assays were performed in the presence of saturating concentrations of NADPH (100 µM) and initiated with dihydrofolate (1 mM). All assays were completed at 25°C in a buffer containing 20 mM TES pH 7.0, 50 mM KCl, 10 mM 2-mercaptoethanol, 0.5 mM EDTA and 1 mg/mL BSA. Inhibition was measured at least three times with inhibitor concentrations near the IC50 value and the average IC50 value is reported with a standard deviation.

VISA Mu50 = experiment: MIC against clinical isolates of MRSA; format: cell-based; conditions: Staphylococcus aureus, read-out: MIC VISA Mu50
[2] = tested on: Staphylococcus aureus subsp. aureus ATCC 44300; experiment: MIC and MBC determination (microdilution, plating on Isosensitest agar); format: cell-based; conditions: ATCC44300
Description: MBC was defined as the lowest concentration of inhibitor preventing colony growth on agar plates.

MRSA strain ATCC 43300 = conditions: selection at ten times the MIC value
Description: Selective plates were grown for 30 hours at 37°C. […] Direct colony PCR was used to isolate and amplify the dfrA gene from resistant strains using methods described in [34]. All PCR products were screened for point mutations in DHFR by high quality DNA sequencing (Genewiz). Primers used to detect the dfrA gene contained restriction enzyme cut sites for NdeI and XhoI in order to ligate PCR products into the pET41 vector for further validation with DNA sequencing with the T7 promoter sequencing primer. Mutation frequencies were calculated based on the sequencing information provided for each mutant colony.

S. aureus DHFR = target: T2, S. aureus DHFR (Staphylococcus aureus, UniProt P0A017); experiment: biochemical; format: biochemical; conditions: for Selectivity (h/Sa): IC50 (human)/IC50 (pathogen)
T2 construct: the DHFR gene was inserted into vector pET41 with a His8 tag for purification; His8; made in house; host or cells: E. coli BL21 (DE3)
Description: (§3) S. aureus DHFR was cloned, expressed and purified as previously described. Briefly, the DHFR gene was inserted into vector pET41 with a His8 tag for purification. The protein was expressed in E. coli BL21 (DE3) cells. […] The protein was concentrated to ∼5 mg/mL. S. pyogenes DHFR was cloned using PCR from genomic DNA and inserted in vector pET-41.
as §2

S. pyogenes DHFR = S. pyogenes DHFR (Streptococcus pyogenes, UniProt Q9A091); experiment: biochemical; format: biochemical; conditions: for Selectivity (h/Sp): IC50 (human)/IC50 (pathogen)
Description: as §3, §2

USA300 CA-MRSA = experiment: MIC against clinical isolates of MRSA; format: cell-based, Staphylococcus aureus; conditions: Staphylococcus aureus, clinical isolate, read-out: MIC USA300 CA-MRSA
HA-MRSA = experiment: MIC against clinical isolates of MRSA; format: cell-based; conditions: Staphylococcus aureus, clinical isolate, read-out: MIC HA-MRSA
HepG2 cells = experiment: Mammalian cell toxicity (Alamar Blue); format: cell-based; conditions: Homo sapiens, cytotoxicity, 4 h incubation
Description: Fetal calf serum used in these assays was lot matched throughout. All cultures were maintained under a humidified 5% CO2 atmosphere at 37°C, had media refreshed twice weekly and were subcultured by trypsinization and resuspension at a ratio of 1∶5 each week. Toxicity assays were conducted between passages 10–20. Target compound toxicity was measured by incubating the test compound with the cells for 4 h, washing the cells and finally treating the cells with Alamar Blue. After 12–24 h, the fluorescence of the reduced dye was measured. Fluorescence intensity as a function of test compound concentration was fit to the Fermi equation, using non-linear least squares regression analysis, to estimate IC50 values.

Streptococcus pyogenes = experiment: MIC, broth microdilution with Alamar Blue; format: cell-based; conditions: for Selectivity S. pyogenes: IC50 (MCF10)/MIC (pathogen), both values in µM; for MIC: Streptococcus pyogenes
Description: as §1

MCF-10 cells = experiment: Mammalian cell toxicity (Alamar Blue); format: cell-based; conditions: Homo sapiens, MCF10; cytotoxicity, 4 h incubation; read-out: IC50 MCF-10
Description: Adherent cell lines were maintained in Eagle's Minimal Essential Media (Sigma-Aldrich, St. Louis, MO, USA) with 2 mM glutamine and Earle's Balanced Salt Solution (HyClone, Logan, UT, USA) adjusted to contain 1.5 g/L sodium bicarbonate, 0.1 mM non-essential amino acids, 1 mM sodium pyruvate and 10% fetal calf serum. Fetal calf serum used in these assays was lot matched throughout. […] Toxicity assays were conducted between passages 10–20. Target compound toxicity was measured by incubating the test compound with the cells for 4 h, washing the cells and finally treating the cells with Alamar Blue. After 12–24 h, the fluorescence of the reduced dye was measured. Fluorescence intensity as a function of test compound concentration was fit to the Fermi equation, using non-linear least squares regression analysis, to estimate IC50 values.

[3] = tested on: TMP-SMZ-resistant MRSA strain; experiment: MIC against clinical isolates of MRSA; format: cell-based; conditions: Staphylococcus aureus, clinical isolate, Table 4, read-out: MIC TMP-SMZ^R
[4] = 10% fetal calf serum, read-out: MIC MRSA +FCS
[5] = 10% fetal calf serum, value in parentheses, read-out: MIC MRSA +FCS
[6] = value in parentheses, read-out: MIC MRSA
[7] = 10% FCS, read-out: MIC S. pyogenes +FCS
[8] = 10% FCS, value in parentheses, read-out: MIC S. pyogenes +FCS
[9] = value in parentheses, read-out: MIC S. pyogenes

Chain of S. pyogenes DHFR (Q9A091 entry or part of it): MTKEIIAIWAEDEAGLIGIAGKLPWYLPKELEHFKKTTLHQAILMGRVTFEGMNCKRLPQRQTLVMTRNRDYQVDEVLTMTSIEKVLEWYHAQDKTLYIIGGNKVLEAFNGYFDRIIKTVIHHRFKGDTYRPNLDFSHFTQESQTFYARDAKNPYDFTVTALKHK
T2 sequence (P0A017 whole entry): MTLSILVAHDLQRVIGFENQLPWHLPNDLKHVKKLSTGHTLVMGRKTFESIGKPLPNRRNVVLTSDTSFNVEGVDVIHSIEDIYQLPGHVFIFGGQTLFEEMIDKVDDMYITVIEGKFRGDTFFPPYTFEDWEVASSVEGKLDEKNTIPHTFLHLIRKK

Structure (SMILES): COc1cc(-c2ccncc2)cc(C(C)C#Cc2c(C)nc(N)nc2N)c1 (centres unmarked) [Compound 24]
- MIC (hVISA Mu3): 0.045 µg/mL (≈ 0.125 µM)
- MIC (USA100 HA-MRSA; USA100): 0.045 µg/mL (≈ 0.125 µM)
- MIC (USA100 HA-MRSA; first USA100 column): 2.9 µg/mL (≈ 8.07 µM)
- MIC (USA100 HA-MRSA; third USA100 column): 0.09 µg/mL (≈ 0.25 µM)
- Selectivity MRSA (MRSA (S.aureus 13709)): 1,760
- MIC (MRSA (S.aureus 13709); [4]): 0.09 µg/mL
- MIC (MRSA (S.aureus 13709); [5]): 0.25 µM
- MIC (MRSA (S.aureus 13709); [6]): 0.125 µM
- MIC (MRSA (S.aureus 13709); read-out: MIC MRSA): 0.04 µg/mL
- MIC [1]: 2.5 µg/mL (≈ 6.96 µM)
- IC50 (Human DHFR): 1500 ± 8 nM
- MIC (VISA Mu50): 0.18 µg/mL (≈ 0.501 µM)
- MBC [2]: 0.078 µg/mL (≈ 0.217 µM)
- MIC [2]: 0.078 µg/mL (≈ 0.217 µM)
- resistance frequency (MRSA strain ATCC 43300): 3.9×10^−10
- Selectivity (h/Sa) (S. aureus DHFR): 58
- IC50 (S. aureus DHFR; S. aureus DHFR, average of at least three measurements, read-out: IC50 (nM) Sa): 26 ± 2 nM
- Selectivity (h/Sp) (S. pyogenes DHFR): 9.4
- MIC (USA300 CA-MRSA; USA300): 0.09 µg/mL (≈ 0.25 µM)
- MIC (USA300 CA-MRSA): 0.045 µg/mL (≈ 0.125 µM)
- MIC (HA-MRSA): 0.09 µg/mL (≈ 0.25 µM)
- IC50 (HepG2 cells): 233000 nM
- Selectivity S. pyogenes (Streptococcus pyogenes): 1,760
- MIC (Streptococcus pyogenes; [7]): 0.09 µg/mL
- MIC (Streptococcus pyogenes; [8]): 0.25 µM
- MIC (Streptococcus pyogenes; [9]): 0.125 µM
- MIC (Streptococcus pyogenes; read-out: MIC S. pyogenes): 0.04 µg/mL
- IC50 (MCF-10 cells): 220000 nM
- MIC [3]: 0.045 µg/mL (≈ 0.125 µM)

Structure (SMILES): CCc1nc(N)nc(N)c1C#CC(C)c1cc(OC)cc(-c2ccncc2)c1 (centres unmarked) [Compound 25]
- MIC (hVISA Mu3): 0.09 µg/mL (≈ 0.241 µM)
- MIC (USA100 HA-MRSA; USA100): 0.09 µg/mL (≈ 0.241 µM)
- MIC (USA100 HA-MRSA; first USA100 column): 2.9 µg/mL (≈ 7.77 µM)
- MIC (USA100 HA-MRSA; third USA100 column): 0.09 µg/mL (≈ 0.241 µM)
- MIC (MRSA (S.aureus 13709); [6]): 0.5 µM
- MIC (MRSA (S.aureus 13709); read-out: MIC MRSA): 0.09 µg/mL
- IC50 (Human DHFR): 1300 ± 11 nM
- MIC (VISA Mu50): 0.09 µg/mL (≈ 0.241 µM)
- MBC [2]: 0.078 µg/mL (≈ 0.209 µM)
- MIC [2]: 0.078 µg/mL (≈ 0.209 µM)
- IC50 (S. aureus DHFR): 19 ± 1 nM
- IC50 (S. pyogenes DHFR): 180 ± 19 nM
- MIC (USA300 CA-MRSA; USA300): 0.09 µg/mL (≈ 0.241 µM)
- MIC (USA300 CA-MRSA): 0.045 µg/mL (≈ 0.12 µM)
- MIC (HA-MRSA): 0.02 µg/mL (≈ 0.0536 µM)
- IC50 (HepG2 cells): 171000 nM
- MIC (Streptococcus pyogenes; [9]): 0.032 µM
- MIC (Streptococcus pyogenes; read-out: MIC S. pyogenes): 0.012 µg/mL
- IC50 (MCF-10 cells): 85000 nM
- MIC [3]: 0.09 µg/mL (≈ 0.241 µM)

Structure (SMILES): CCc1nc(N)nc(N)c1C#CCc1cc(OC)cc(-c2ccncc2)c1 [Compound 27]
- MIC (hVISA Mu3): 0.045 µg/mL (≈ 0.125 µM)
- MIC (USA100 HA-MRSA; USA100): 0.045 µg/mL (≈ 0.125 µM)
- MIC (USA100 HA-MRSA; first USA100 column): 2.9 µg/mL (≈ 8.07 µM)
- MIC (USA100 HA-MRSA; third USA100 column): 0.045 µg/mL (≈ 0.125 µM)
- Selectivity MRSA (MRSA (S.aureus 13709)): 3,272
- MIC (MRSA (S.aureus 13709); [4]): 0.09 µg/mL
- MIC (MRSA (S.aureus 13709); [5]): 0.25 µM
- MIC (MRSA (S.aureus 13709); [6]): 0.125 µM
- MIC (MRSA (S.aureus 13709); read-out: MIC MRSA): 0.04 µg/mL
- IC50 (Human DHFR): 61 ± 5.7 nM
- MIC (VISA Mu50): 0.18 µg/mL (≈ 0.501 µM)
- IC50 (S. aureus DHFR): 12 ± 2.4 nM
- Selectivity (h/Sa) (S. aureus DHFR): 5
- Selectivity (h/Sp) (S. pyogenes DHFR): 2
- MIC (USA300 CA-MRSA; USA300): 0.045 µg/mL (≈ 0.125 µM)
- MIC (USA300 CA-MRSA): 0.045 µg/mL (≈ 0.125 µM)
- MIC (HA-MRSA): 0.045 µg/mL (≈ 0.125 µM)
- IC50 (HepG2 cells): 465000 nM
- Selectivity S. pyogenes (Streptococcus pyogenes): 3,272
- MIC (Streptococcus pyogenes; [7]): 0.09 µg/mL
- MIC (Streptococcus pyogenes; [8]): 0.25 µM
- MIC (Streptococcus pyogenes; [9]): 0.125 µM
- MIC (Streptococcus pyogenes; read-out: MIC S. pyogenes): 0.04 µg/mL
- IC50 (MCF-10 cells): 409000 nM
- MIC [3]: 0.045 µg/mL (≈ 0.125 µM)
